Three compounds from patent publication US20190119348A1, “PARATHYROID HORMONE RECEPTOR 1 ANTAGONIST AND INVERSE AGONIST POLYPEPTIDES AND METHODS OF THEIR USE” (The General Hospital Corporation, priority 2016, published 2019) can be followed below.

Molecules are shown by their SMILES. Where a SMILES comes first, the peptide text is derived from it. [ ]: non-standard residue; d: D form. Nle = CCCC[C@H](N)C(=O)O

The assay concerns the target T1, human PTHR1-H223R (Homo sapiens, UniProt Q03431, H223R).
T1 construct: expressed in transfected cells; host or cells: GHR-10 (HEK-293 stably expressing GloSensor and PTHR1-H223R)
T1 sequence (Q03431 27-593 H223R): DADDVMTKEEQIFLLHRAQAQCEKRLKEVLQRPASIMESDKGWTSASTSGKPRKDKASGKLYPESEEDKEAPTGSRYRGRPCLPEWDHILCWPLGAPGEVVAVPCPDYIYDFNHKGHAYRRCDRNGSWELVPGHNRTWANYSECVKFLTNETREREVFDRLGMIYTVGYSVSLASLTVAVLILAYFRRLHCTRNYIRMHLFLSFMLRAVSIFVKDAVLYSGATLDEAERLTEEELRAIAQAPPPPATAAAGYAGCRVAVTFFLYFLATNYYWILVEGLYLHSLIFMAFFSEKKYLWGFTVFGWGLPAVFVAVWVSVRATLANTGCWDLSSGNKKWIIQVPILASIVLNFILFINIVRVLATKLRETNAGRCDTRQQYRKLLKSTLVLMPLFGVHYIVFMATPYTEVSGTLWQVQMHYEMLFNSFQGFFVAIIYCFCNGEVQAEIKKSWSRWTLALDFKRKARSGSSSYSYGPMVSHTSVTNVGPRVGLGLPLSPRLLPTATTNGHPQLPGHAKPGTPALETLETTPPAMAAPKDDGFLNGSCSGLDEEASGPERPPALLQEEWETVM
The experiment in a line: Inverse agonism on basal cAMP signaling in GHR-10 cells. It is filed as cell-based. The note with it: GHR-10 cells, from AUC, representative experiment; for Reduction of basal cAMP, % vehicle, After ligand washout: 26 minutes after washout of unbound ligand; for Reduction of basal cAMP, % vehicle, Ligand @ −6M: peptide 1×10^−6 M for 24 minutes. As to the method:
cAMP signaling was assessed in the HEK293-derived or SaOS2-derived cell lines stably expressing the luciferase-based GloSensor™ cAMP reporter (Hattersley et al., Paper presented at: Novel Signaling Mechanisms and Bone Cell Biology 2014; Binkowski et al., Methods in molecular biology. 756:263-271). HEK-293 cells were further transfected to stably express the hPTHR1, hPTHR1-H223R, or hPTHR1-T410P. The cells were seeded into 96-well white plates and were assayed 24 to 48 hours post-confluency. Assays were performed at room temperature in CO2-independent culture media (Life Technologies, Corp., Carlsbad, Calif.) containing 0.1% BSA (CIDB). The cells were pre-loaded with luciferin (0.5 mM in CIDB) for 15 minutes, then PTH peptides were added at varying concentrations. cAMP-dependent luminescence was measured at two-minute intervals using a PerkinElmer Envision plate reader. The time at which maximum luminescence (cps) observed with agonist alone, typically at 10-20 minutes after agonist addition, was used to obtain data from wells containing antagonist with or without agonist, to thus generate antagonist ligand dose-response curves. The resulting cps values were then plotted against ligand concentration using GraphPad Prism 7.0 software and a four-parameter logistics curve fitting equation, which yielded parameters of inhibitory potency (pIC50).
These experiments were performed in HEK-293 cells stably transfected to express the GloSensor™ cAMP reporter along with a constitutively active mutant human PTHR1. The HEK-293 cells stably expressing GloSensor™ cAMP reporter along with a constitutively active mutant human PTHR1-H223R are GHR-10 cells. The HEK-293 cells stably expressing GloSensor™ cAMP reporter along with a constitutively active mutant human PTHR1-T410P are GTP-4 cells. The HEK-293 cells stably expressing GloSensor™ cAMP reporter along with a WT-PTHR1 are GP-2.3 cells. GP-2.3 cells were used as control. […] Effects on basal cAMP signaling over time were assessed during periods of direct ligand addition (FIGS. 15A-15F). The measurements were performed by recording GloSensor™ luminescence as counts per second (cps) using a PerkinElmer Envision plate reader. The data are illustrated in FIGS. 15A-15F. Data are from triplicate wells (means±SEM) of a single experiment representative of two others.
Persistence of the antagonist/inverse agonist effects (prolonged action) as follows. Effects of eight peptides on basal and PTH(1-34)-stimulated cAMP signaling by PTHR-H223R were assessed in GHR-10 cells (HEK-293-derived cells stably expressing glosensor cAMP reporter and PTHR1-H223R). Time courses of changes in cAMP levels were recorded in three consecutive phases:
1) after initial addition of a candidate antagonist/inverse agonist (1×10^−6 M-1×10^−9 M) to cells pre-loaded for […] with luciferin (left column);
2) after removal of unbound inverse agonist by extensive wash-out with buffer and replenishment with fresh luciferin-containing buffer (middle column); and
Control wells were treated with vehicle. GloSensor™ luminescence, as counts per second (cps), was recorded using a PerkinElmer Envision plate reader. Data are from duplicate wells (means±SEM) of a single experiment representative of two others. The results are illustrated in Table 7 and in FIGS. 16A-16C, 17A-17C, 18A-18C, 19A-19C, 20A-20C, 21A-21C, 22A-22C, and 23A-23C.
GHR10 cells were treated with vehicle or vehicle containing the indicated peptide for 24 minutes and cAMP-dependent luminescence was recorded at two-minute intervals. The cells were then washed to remove unbound ligand and media containing fresh luciferin was added, and cAMP luminescence was recorded for another 26 minutes. Percentage reduction was calculated from the area-under-the-curve (AUC) values derived from the time course plots using the equation: […]

For the compound `CCCC[C@H](NC(=O)[C@H](CC(C)C)NC(=O)[C@H](CCC(N)=O)NC(=O)[C@@H](N)[C@@H](C)CC)C(=O)N[C@@H](Cc1c[nH]cn1)C(=O)N[C@@H](CCC(N)=O)C(=O)N[C@@H](CC(C)C)C(=O)N[C@H](Cc1c[nH]c2ccccc12)C(=O)N[C@@H](CCCCN)C(=O)N[C@@H](Cc1c[nH]c2ccccc12)C(=O)N[C@H](C(=O)N[C@@H](CCC(N)=O)C(=O)N[C@@H](CC(=O)O)C(=O)N[C@@H](C)C(=O)N[C@@H](CCCNC(=N)N)C(=O)N[C@@H](CCCNC(=N)N)C(=O)N[C@@H](CCCNC(=N)N)C(=O)N[C@@H](C)C(=O)N[C@@H](Cc1c[nH]c2ccccc12)C(=O)N[C@@H](CC(C)C)C(=O)N[C@@H](Cc1c[nH]cn1)C(=O)N[C@@H](CCCCN)C(=O)N[C@@H](CC(C)C)C(=O)N[C@H](C(=O)N[C@@H](C)C(=O)N[C@@H](CCC(=O)O)C(=O)N[C@H](C(=O)N[C@@H](Cc1c[nH]cn1)C(=O)N[C@H](C(=O)N[C@@H](C)C(=O)N[C@@H](CCC(=O)O)C(=O)N[C@H](C(N)=O)[C@@H](C)CC)[C@@H](C)O)[C@@H](C)CC)[C@@H](C)CC)[C@@H](C)CC` [compound 1999, Nle8, L11, dW12, W23-LA-PTH(5-36)-1999] (H-IQL[Nle]HQL[dW]KWIQDARRRAWLHKLIAEIHTAEI-NH2; N-terminus assumed), the “Reduction of basal cAMP, % vehicle, After ligand washout” value was 62 % vehicle and the “Reduction of basal cAMP, % vehicle, Ligand @ −6M” value is given as 63 % vehicle.

Turning to `CC[C@H](C)[C@H](NC(=O)[C@H](CCC(=O)O)NC(=O)[C@H](C)NC(=O)[C@@H](NC(=O)[C@H](Cc1c[nH]cn1)NC(=O)[C@@H](NC(=O)[C@H](CCC(=O)O)NC(=O)[C@H](C)NC(=O)[C@@H](NC(=O)[C@H](CC(C)C)NC(=O)[C@H](CCCCN)NC(=O)[C@H](Cc1c[nH]cn1)NC(=O)[C@H](CC(C)C)NC(=O)[C@H](Cc1c[nH]c2ccccc12)NC(=O)[C@H](C)NC(=O)[C@H](CCCNC(=N)N)NC(=O)[C@H](CCCNC(=N)N)NC(=O)[C@H](CCCNC(=N)N)NC(=O)[C@H](C)NC(=O)[C@H](CC(=O)O)NC(=O)[C@H](CCC(N)=O)NC(=O)[C@@H](NC(=O)[C@H](Cc1c[nH]c2ccccc12)NC(=O)[C@H](CCCCN)NC(=O)[C@@H](Cc1c[nH]c2ccccc12)NC(=O)[C@H](CC(C)C)NC(=O)[C@H](CCC(N)=O)NC(=O)[C@H](Cc1c[nH]cn1)NC(=O)[C@H](CCSC)NC(=O)[C@@H](N)CC(C)C)[C@@H](C)CC)[C@@H](C)CC)[C@@H](C)CC)[C@@H](C)O)C(N)=O` [compound 2001, L11, dW12, W23-LA-PTH(7-36)-2001] (H-LMHQL[dW]KWIQDARRRAWLHKLIAEIHTAEI-NH2; N-terminus assumed), the “Reduction of basal cAMP, % vehicle, After ligand washout” value was determined as 65 % vehicle and the “Reduction of basal cAMP, % vehicle, Ligand @ −6M” value was 66 % vehicle.

In the case of `CC[C@H](C)[C@H](N)C(=O)N[C@@H](CCC(N)=O)C(=O)N[C@@H](CC(C)C)C(=O)N[C@@H](CCSC)C(=O)N[C@@H](Cc1c[nH]cn1)C(=O)N[C@@H](CCC(N)=O)C(=O)N[C@@H](CC(C)C)C(=O)N[C@H](Cc1c[nH]c2ccccc12)C(=O)N[C@@H](CCCCN)C(=O)N[C@@H](Cc1c[nH]c2ccccc12)C(=O)N[C@H](C(=O)N[C@@H](CCC(N)=O)C(=O)N[C@@H](CC(=O)O)C(=O)N[C@@H](C)C(=O)N[C@@H](CCCNC(=N)N)C(=O)N[C@@H](CCCNC(=N)N)C(=O)N[C@@H](CCCNC(=N)N)C(=O)N[C@@H](C)C(=O)N[C@@H](Cc1c[nH]c2ccccc12)C(=O)N[C@@H](CC(C)C)C(=O)N[C@@H](Cc1c[nH]cn1)C(=O)N[C@@H](CCCCN)C(=O)N[C@@H](CC(C)C)C(=O)N[C@H](C(=O)N[C@@H](C)C(=O)N[C@@H](CCC(=O)O)C(=O)N[C@H](C(=O)N[C@@H](Cc1c[nH]cn1)C(=O)N[C@H](C(=O)N[C@@H](C)C(=O)N[C@@H](CCC(=O)O)C(=O)N[C@H](C(N)=O)[C@@H](C)CC)[C@@H](C)O)[C@@H](C)CC)[C@@H](C)CC)[C@@H](C)CC` [compound 2003, L11, dW12, W23-LA-PTH(5-36)-2003] (H-IQLMHQL[dW]KWIQDARRRAWLHKLIAEIHTAEI-NH2; N-terminus assumed), the “Reduction of basal cAMP, % vehicle, After ligand washout” value turned out to be 64 % vehicle and the “Reduction of basal cAMP, % vehicle, Ligand @ −6M” value is listed as 66 % vehicle.
